Measurements as given in ChEMBL document CHEMBL2440005, “Discovery and structure-activity relationships of 6-(benzoylamino)benzoxaboroles as orally active anti-inflammatory agents” (Bioorg Med Chem Lett, 2013).
Activity calls are given as the source filed them. The calls are words filed in the database; no cut-off is given here.

Key:
Mus musculus [1] = experiment: Antiinflammatory activity in po dosed mouse assessed as inhibition of LPS-induced TNF-alpha production administered 1 hr prior to LPS challenge measured after 1 hr; type: functional, organism-based
[2] = target: MAP kinase-activated protein kinase 5 (Homo sapiens) (UniProt Q8IW41); experiment: Inhibition of MAPKAPK5 (unknown origin) at 30 uM
[3] = target: Dual specificity mitogen-activated protein kinase kinase 1 (Homo sapiens) (UniProt Q02750); experiment: Inhibition of MEK1 (unknown origin) at 30 uM
[4] = target: RAC-gamma serine/threonine-protein kinase (Homo sapiens) (UniProt Q9Y243); experiment: Inhibition of AKT3 (unknown origin) at 30 uM
[5] = Clearance in mouse at 2 mg/kg, iv; type: ADME, organism-based; set-up: dose 2 mg/kg, route intravenous; conditions: in vivo
[6] = target: Mitogen-activated protein kinase 14 (Homo sapiens) (UniProt Q16539); experiment: Inhibition of p38alpha (unknown origin) at 30 uM
[7] = Cmax in mouse at 4 mg/kg, po; type: ADME, organism-based; set-up: dose 4 mg/kg, route oral; conditions: in vivo
[8] = target: MAP kinase-activated protein kinase 2 (Homo sapiens) (UniProt P49137); experiment: Inhibition of MAPKAPK2 (unknown origin) at 30 uM
[9] = target: Prostaglandin G/H synthase 2 (Homo sapiens) (UniProt P35354); experiment: Inhibition of COX2 (unknown origin) up to 25 uM
[10] = target: RAC-alpha serine/threonine-protein kinase (Homo sapiens) (UniProt P31749); experiment: Inhibition of AKT1 (unknown origin) at 30 uM
[11] = target: Mitogen-activated protein kinase 1 (Homo sapiens) (UniProt P28482); experiment: Inhibition of ERK2 (unknown origin) at 30 uM
[12] = target: Prostaglandin G/H synthase 1 (Homo sapiens) (UniProt P23219); experiment: Inhibition of COX1 (unknown origin) up to 25 uM
[13] = target: Phosphatidylinositol 4,5-bisphosphate 3-kinase catalytic subunit gamma isoform (Homo sapiens) (UniProt P48736); experiment: Inhibition of PI3Kgamma (unknown origin) at 30 uM
Mus musculus [14] = experiment: Toxicity in mouse assessed as change in body weight at 30 mg/kg, po qd administered every other day for 20 days relative to untreated control; type: organism-based; set-up: dose 30 mg/kg, route oral; conditions: in vivo, 480 h
[15] = target: Tyrosine-protein kinase JAK2 (Homo sapiens) (UniProt O60674); experiment: Inhibition of JAK2 (unknown origin) at 30 uM
[16] = AUC (0 to 24 hrs) in mouse at 2 mg/kg, iv; type: ADME, organism-based; set-up: time < 24 hr, dose 2 mg/kg, route intravenous; conditions: plasma
PBMC [17] = experiment: Cytotoxicity against LPS-stimulated human PBMC assessed as growth inhibition by MTT assay; type: cell-based
[18] = target: Protein kinase C alpha type (Homo sapiens) (UniProt P17252); experiment: Inhibition of PKCalpha (unknown origin) at 30 uM
[19] = target: Dual specificity mitogen-activated protein kinase kinase 2 (Homo sapiens) (UniProt P36507); experiment: Inhibition of MEK2 (unknown origin) at 30 uM
[20] = target: Tyrosine-protein kinase JAK1 (Homo sapiens) (UniProt P23458); experiment: Inhibition of JAK1 (unknown origin) at 30 uM
[21] = target: Interleukin-1 receptor-associated kinase 4 (Homo sapiens) (UniProt Q9NWZ3); experiment: Inhibition of IRAK4 (unknown origin) at 30 uM
[22] = target: Dual specificity mitogen-activated protein kinase kinase 4 (Homo sapiens) (UniProt P45985); experiment: Inhibition of MKK4 (unknown origin) at 30 uM
PBMC [23] = experiment: Antiinflammatory activity in human PBMC assessed as inhibition of LPS-induced TNFalpha release incubated for 15 mins prior to LPS-challenge measured after 24 hrs by HTRF assay; type: functional, cell-based
[24] = target: Inhibitor of nuclear factor kappa-B kinase subunit alpha (Homo sapiens) (UniProt O15111); experiment: Inhibition of IKKalpha (unknown origin) at 30 uM
[25] = target: Rho-associated protein kinase 2 (Homo sapiens) (UniProt O75116); experiment: Inhibition of ROCK2 (unknown origin) at 30 uM
PBMC [26] = experiment: Antiinflammatory activity in human PBMC assessed as inhibition of LPS-induced IL-6 release incubated for 15 mins prior to LPS-challenge measured after 24 hrs by HTRF assay; type: functional, cell-based
Mus musculus [27] = experiment: Antiinflammatory activity in mouse assessed as inhibition of LPS-induced IL-6 production at 100 mg/kg, po administered 1 hr prior to LPS challenge measured after 1 hr; type: functional, organism-based; set-up: dose 100 mg/kg
[28] = target: Mitogen-activated protein kinase 10 (Homo sapiens) (UniProt P53779); experiment: Inhibition of JNK3 (unknown origin) at 30 uM
[29] = target: Mitogen-activated protein kinase 9 (Homo sapiens) (UniProt P45984); experiment: Inhibition of JNK2 (unknown origin) at 30 uM
[30] = target: MAP kinase-activated protein kinase 3 (Homo sapiens) (UniProt Q16644); experiment: Inhibition of MAPKAPK3 (unknown origin) at 30 uM
[31] = AUC (0 to 24 hrs) in mouse at 4 mg/kg, po; type: ADME, organism-based; set-up: time < 24 hr, dose 4 mg/kg, route oral; conditions: plasma
[32] = target: Serine/threonine-protein kinase TBK1 (Homo sapiens) (UniProt Q9UHD2); experiment: Inhibition of TBK1 (unknown origin) at 30 uM
Mus musculus [33] = experiment: Antiinflammatory activity in mouse assessed as inhibition of LPS-induced TNF-alpha production at 10 mg/kg, po administered 1 hr prior to LPS challenge measured after 1 hr; type: functional
[34] = target: Interleukin-1 receptor-associated kinase 1 (Homo sapiens) (UniProt P51617); experiment: Inhibition of IRAK1 (unknown origin) at 30 uM
Mus musculus [35] = experiment: Antiinflammatory activity in mouse assessed as inhibition of LPS-induced IL-6 production at 10 mg/kg, po administered 1 hr prior to LPS challenge measured after 1 hr; type: functional
Mus musculus [36] = experiment: Antiinflammatory activity in mouse assessed as inhibition of LPS-induced TNF-alpha production at 30 mg/kg, po administered 1 hr prior to LPS challenge measured after 1 hr; type: functional
Mus musculus [37] = experiment: Antiinflammatory activity in po dosed mouse assessed as inhibition of LPS-induced IL-6 production administered 1 hr prior to LPS challenge measured after 1 hr; type: functional, organism-based
Mus musculus [38] = experiment: Antiinflammatory activity in mouse assessed as inhibition of LPS-induced IL-6 production at 30 mg/kg, po administered 1 hr prior to LPS challenge measured after 1 hr; type: functional
PBMC [39] = experiment: Antiinflammatory activity in human PBMC assessed as inhibition of LPS-induced IL-1beta release incubated for 15 mins prior to LPS-challenge measured after 24 hrs by HTRF assay; type: functional, cell-based
[40] = Volume of distribution at steady state in mouse at 2 mg/kg, iv; type: ADME, organism-based; set-up: dose 2 mg/kg, route intravenous; conditions: in vivo, read-out: Vdss
[41] = target: Mitogen-activated protein kinase 12 (Homo sapiens) (UniProt P53778); experiment: Inhibition of p38gamma (unknown origin) at 30 uM
[42] = Terminal half life in mouse at 4 mg/kg, po; type: ADME, organism-based; set-up: dose 4 mg/kg, route oral; conditions: in vivo, read-out: beta t1/2 (converted)
Mus musculus [43] = experiment: Antiinflammatory activity in mouse assessed as inhibition of LPS-induced TNF-alpha production at 100 mg/kg, po administered 1 hr prior to LPS challenge measured after 1 hr; type: functional, organism-based; set-up: dose 100 mg/kg

Sequence of RAC-gamma serine/threonine-protein kinase (Homo sapiens) (Q9Y243 whole entry): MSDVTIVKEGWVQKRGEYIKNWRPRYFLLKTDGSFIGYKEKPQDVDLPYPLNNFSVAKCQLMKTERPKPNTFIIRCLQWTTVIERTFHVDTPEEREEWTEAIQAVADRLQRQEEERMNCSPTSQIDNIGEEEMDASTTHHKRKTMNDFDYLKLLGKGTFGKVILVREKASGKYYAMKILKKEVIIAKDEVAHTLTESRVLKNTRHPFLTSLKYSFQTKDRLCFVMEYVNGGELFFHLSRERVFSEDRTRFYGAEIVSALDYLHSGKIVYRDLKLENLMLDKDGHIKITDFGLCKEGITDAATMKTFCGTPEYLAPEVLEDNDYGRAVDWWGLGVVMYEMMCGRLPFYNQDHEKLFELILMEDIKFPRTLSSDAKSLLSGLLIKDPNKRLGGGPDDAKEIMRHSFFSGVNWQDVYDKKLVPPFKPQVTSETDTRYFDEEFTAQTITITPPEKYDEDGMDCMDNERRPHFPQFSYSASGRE
Sequence of Mitogen-activated protein kinase 9 (Homo sapiens) (P45984 whole entry, looked up): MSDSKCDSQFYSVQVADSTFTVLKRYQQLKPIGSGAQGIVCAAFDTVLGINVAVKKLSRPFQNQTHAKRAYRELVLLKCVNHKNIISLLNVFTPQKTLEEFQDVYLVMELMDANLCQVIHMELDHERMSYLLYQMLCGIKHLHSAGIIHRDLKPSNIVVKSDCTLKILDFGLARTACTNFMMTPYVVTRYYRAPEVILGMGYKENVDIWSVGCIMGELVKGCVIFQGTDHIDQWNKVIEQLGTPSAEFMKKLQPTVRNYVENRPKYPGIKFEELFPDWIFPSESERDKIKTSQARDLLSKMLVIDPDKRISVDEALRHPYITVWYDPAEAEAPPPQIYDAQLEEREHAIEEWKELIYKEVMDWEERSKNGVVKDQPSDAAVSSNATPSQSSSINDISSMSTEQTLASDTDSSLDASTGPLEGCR
Sequence of Inhibitor of nuclear factor kappa-B kinase subunit alpha (Homo sapiens) (O15111 whole entry): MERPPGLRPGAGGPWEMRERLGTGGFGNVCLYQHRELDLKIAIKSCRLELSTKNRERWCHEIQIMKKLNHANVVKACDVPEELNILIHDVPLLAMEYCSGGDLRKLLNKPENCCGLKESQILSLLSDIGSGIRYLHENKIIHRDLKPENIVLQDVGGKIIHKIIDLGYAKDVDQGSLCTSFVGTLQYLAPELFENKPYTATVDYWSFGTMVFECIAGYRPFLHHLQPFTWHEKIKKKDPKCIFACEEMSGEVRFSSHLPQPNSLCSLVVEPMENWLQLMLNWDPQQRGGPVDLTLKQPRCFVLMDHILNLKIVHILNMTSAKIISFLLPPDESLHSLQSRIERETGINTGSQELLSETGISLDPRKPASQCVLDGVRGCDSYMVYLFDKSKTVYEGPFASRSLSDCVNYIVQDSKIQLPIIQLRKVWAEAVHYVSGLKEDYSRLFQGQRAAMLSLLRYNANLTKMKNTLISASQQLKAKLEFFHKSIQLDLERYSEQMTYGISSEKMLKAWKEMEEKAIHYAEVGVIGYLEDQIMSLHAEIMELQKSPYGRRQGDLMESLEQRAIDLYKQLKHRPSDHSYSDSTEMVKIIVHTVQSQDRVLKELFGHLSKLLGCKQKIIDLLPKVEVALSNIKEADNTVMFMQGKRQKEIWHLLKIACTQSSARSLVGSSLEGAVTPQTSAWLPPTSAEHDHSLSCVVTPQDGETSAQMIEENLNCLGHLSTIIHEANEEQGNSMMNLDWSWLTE
Sequence of Tyrosine-protein kinase JAK1 (Homo sapiens) (P23458 whole entry): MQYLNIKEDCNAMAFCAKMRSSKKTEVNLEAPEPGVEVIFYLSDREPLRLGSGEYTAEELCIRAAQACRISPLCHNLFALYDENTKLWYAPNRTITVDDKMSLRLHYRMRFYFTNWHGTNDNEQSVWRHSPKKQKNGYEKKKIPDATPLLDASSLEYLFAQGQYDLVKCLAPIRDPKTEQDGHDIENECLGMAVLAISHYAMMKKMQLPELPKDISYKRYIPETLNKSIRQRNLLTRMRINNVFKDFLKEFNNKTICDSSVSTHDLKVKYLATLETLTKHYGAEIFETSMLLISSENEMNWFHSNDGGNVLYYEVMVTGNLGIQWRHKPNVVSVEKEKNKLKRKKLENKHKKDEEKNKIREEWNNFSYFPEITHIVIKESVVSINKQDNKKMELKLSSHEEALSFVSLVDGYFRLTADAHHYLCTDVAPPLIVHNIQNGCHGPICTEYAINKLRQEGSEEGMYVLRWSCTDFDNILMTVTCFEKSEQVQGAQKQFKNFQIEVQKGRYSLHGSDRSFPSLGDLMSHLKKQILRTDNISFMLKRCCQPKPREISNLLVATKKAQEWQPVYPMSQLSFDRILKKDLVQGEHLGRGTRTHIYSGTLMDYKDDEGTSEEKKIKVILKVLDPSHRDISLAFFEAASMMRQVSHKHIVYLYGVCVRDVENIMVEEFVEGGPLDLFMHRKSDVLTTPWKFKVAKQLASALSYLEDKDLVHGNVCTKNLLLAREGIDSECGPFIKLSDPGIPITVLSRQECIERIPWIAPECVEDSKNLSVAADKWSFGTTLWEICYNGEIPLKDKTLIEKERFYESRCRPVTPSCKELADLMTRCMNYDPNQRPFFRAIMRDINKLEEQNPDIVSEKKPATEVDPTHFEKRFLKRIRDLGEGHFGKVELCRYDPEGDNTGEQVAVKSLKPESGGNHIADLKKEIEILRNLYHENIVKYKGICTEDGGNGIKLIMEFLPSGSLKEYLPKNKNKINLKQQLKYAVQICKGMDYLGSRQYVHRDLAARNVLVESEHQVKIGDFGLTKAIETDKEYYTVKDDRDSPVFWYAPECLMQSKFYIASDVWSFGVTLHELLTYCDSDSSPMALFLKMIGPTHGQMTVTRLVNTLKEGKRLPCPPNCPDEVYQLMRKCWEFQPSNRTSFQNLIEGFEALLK
Sequence of Dual specificity mitogen-activated protein kinase kinase 1 (Homo sapiens) (Q02750 whole entry): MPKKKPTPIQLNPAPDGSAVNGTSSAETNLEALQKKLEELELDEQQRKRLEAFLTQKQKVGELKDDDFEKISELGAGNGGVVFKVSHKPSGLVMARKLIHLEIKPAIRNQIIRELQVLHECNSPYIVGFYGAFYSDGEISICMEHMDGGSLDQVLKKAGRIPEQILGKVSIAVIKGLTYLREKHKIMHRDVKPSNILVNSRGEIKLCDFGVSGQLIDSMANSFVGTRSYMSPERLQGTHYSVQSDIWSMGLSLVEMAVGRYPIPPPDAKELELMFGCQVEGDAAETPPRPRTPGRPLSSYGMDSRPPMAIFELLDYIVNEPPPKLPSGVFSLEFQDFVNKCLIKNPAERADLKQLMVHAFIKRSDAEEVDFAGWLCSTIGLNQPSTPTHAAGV
Sequence of Prostaglandin G/H synthase 2 (Homo sapiens) (P35354 whole entry): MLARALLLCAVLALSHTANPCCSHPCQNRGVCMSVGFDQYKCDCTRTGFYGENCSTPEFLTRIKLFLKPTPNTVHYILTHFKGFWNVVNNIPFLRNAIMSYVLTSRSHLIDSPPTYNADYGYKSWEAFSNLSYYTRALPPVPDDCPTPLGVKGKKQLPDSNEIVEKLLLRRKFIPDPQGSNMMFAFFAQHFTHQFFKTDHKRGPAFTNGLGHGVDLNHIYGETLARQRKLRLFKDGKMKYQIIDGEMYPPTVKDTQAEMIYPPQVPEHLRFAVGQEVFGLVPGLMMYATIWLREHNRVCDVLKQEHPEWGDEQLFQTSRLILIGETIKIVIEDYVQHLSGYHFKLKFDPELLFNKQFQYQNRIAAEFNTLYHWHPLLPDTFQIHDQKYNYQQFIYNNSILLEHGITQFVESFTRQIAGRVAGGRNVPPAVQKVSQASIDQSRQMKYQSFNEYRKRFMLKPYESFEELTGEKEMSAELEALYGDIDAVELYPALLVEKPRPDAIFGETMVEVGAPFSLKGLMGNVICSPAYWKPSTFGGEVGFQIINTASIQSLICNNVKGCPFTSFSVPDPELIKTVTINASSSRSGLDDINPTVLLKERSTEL
Sequence of Dual specificity mitogen-activated protein kinase kinase 2 (Homo sapiens) (P36507 whole entry): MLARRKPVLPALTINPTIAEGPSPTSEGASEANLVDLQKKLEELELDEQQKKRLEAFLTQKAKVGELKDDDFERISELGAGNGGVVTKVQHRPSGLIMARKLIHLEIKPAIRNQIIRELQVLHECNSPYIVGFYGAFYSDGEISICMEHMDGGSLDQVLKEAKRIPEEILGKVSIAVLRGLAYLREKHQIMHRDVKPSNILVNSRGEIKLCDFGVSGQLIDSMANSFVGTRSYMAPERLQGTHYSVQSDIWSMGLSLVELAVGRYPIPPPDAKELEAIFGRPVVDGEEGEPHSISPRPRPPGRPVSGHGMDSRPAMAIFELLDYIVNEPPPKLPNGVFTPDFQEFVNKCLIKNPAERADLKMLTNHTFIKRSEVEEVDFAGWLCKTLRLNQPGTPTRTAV
Sequence of RAC-alpha serine/threonine-protein kinase (Homo sapiens) (P31749 whole entry): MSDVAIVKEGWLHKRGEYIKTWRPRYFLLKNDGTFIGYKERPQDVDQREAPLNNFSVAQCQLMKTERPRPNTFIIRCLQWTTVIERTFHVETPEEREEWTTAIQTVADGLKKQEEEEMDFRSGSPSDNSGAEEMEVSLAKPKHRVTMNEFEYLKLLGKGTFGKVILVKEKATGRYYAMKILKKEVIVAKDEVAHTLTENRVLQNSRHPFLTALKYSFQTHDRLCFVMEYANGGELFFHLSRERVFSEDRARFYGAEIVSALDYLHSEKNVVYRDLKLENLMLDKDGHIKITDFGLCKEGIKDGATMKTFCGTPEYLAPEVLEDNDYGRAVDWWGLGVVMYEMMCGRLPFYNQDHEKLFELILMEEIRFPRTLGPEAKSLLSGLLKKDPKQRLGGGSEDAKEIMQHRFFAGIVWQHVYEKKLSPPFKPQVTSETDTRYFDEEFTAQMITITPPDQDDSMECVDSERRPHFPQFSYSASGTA

SMILES: O=C(Nc1ccc2c(c1)B(O)OC2)c1c(C(F)(F)F)ccc(Cl)c1F
- inhibition (Mus musculus [1]): Dose-dependent effect
- inhibition [2]: inactive
- inhibition [3]: inactive
- inhibition [4]: inactive
- clearance [5]: 0.683 mL/min/kg
- inhibition [6]: inactive
- Cmax [7]: 5650 ng/mL
- inhibition [8]: inactive
- inhibition [9]: inactive
- inhibition [10]: inactive
- inhibition [11]: inactive
- inhibition [12]: inactive
- inhibition [13]: inactive
- Activity (Mus musculus [14]): Non-toxic
- inhibition [15]: inactive
- AUC(0-t) at 24 h [16]: 43400 ng·h/mL
- IC50 (PBMC [17]): > 100000 nM
- inhibition [18]: 62%
- inhibition [19]: inactive
- inhibition [20]: inactive
- inhibition [21]: inactive
- inhibition [22]: inactive
- IC50 (PBMC [23]): 500 nM
- inhibition [24]: inactive
- inhibition [25]: inactive
- IC50 (PBMC [26]): 320 nM
- inhibition (Mus musculus [27]): Active
- inhibition [28]: inactive
- inhibition [29]: inactive
- inhibition [30]: inactive
- AUC(0-t) at 24 h [31]: 70100 ng·h/mL
- inhibition [32]: inactive
- inhibition in vivo at 10 mg/kg (Mus musculus [33]): 60%
- inhibition [34]: inactive
- inhibition in vivo at 10 mg/kg (Mus musculus [35]): 75%
- inhibition in vivo at 30 mg/kg (Mus musculus [36]): 80%
- inhibition (Mus musculus [37]): Dose-dependent effect
- inhibition in vivo at 30 mg/kg (Mus musculus [38]): 95%
- IC50 (PBMC [39]): 190 nM
- Vd [40]: 0.41 L/kg
- inhibition [41]: inactive
- half-life [42]: 13.3 h
- inhibition (Mus musculus [43]): Active
